Measurements: patent US10532986B2, “Cyclic compound acting as PDE4 inhibitor” (MEDSHINE DISCOVERY INC., priority 2016, dated 2020)

biological target: T1, Recombinant human PDE4B (Homo sapiens, UniProt Q07343); experiment: Inhibitory activity of the compounds against PDE 4B (fluorescence polarization, Transcreener AMP2/GMP2); format: biochemical; conditions: recombinant human PDE4B (aa 305-end, GST tag); 1 μM cAMP; 1 hour at room temperature
T1 construct: amino acid 305-end; GST (N); made in house; host or cells: Sf9 insect cells (baculovirus)
Experimental: Inhibitory activity of the compounds against PDE 4B
The assay is based on the fluorescence polarization measuring AMP/GMP production as a result of the enzyme activity by displacement of Tracer binding to the AMP/GMP antibody.
10 mM Tris-HCl (pH 7.5), 5 mM MgCl2, 0.01% Brij 35, 1 mM DTT and 1% DMSO.
Recombinant human PDE4B (Gene accession number: NM_002600; amino acid 305-end) was expressed by baculovirus in Sf9 insect cells using an N-terminal GST tag. MW=78 kDa.
Transcreener® AMP^2/GMP^2 antibody and AMP^2/GMP^2 AlexaFluor 633 tracer
i) Recombinant human PDE4B and the enzyme substrate (1 μM cAMP) were dissolved in the newly-prepared buffer solution, respectively.
ii) The PDE4B buffer solution defined as above was transferred into the reaction wells.
iii) The compound which was dissolved in 100% DMSO was added to the reaction wells of the PDE4B buffer solution by Acoustic technology (Echo550; nanoliter range) and incubated at room temperature for 10 minutes.
iv) The enzymatic buffer solution was then added to the reaction wells defined as above to initiate the reaction.
v) The reaction was incubated at room temperature for 1 hour.
vi) The reaction was terminated by adding detecting mixture (Transcreener® AMP^2/GMP^2 antibody and AMP^2/GMP^2 AlexaFluor 633 tracer) and incubated for 90 minutes with gentle mixing. The measurement range of fluorescence polarization is Ex/Em=620/688.
The fluorescence polarization signal was converted into nM based on the AMP/GMP standard curve and the percent enzyme activity relative to DMSO calculated by Excel. GraphPad Prism was used to plot the curves (Drawing Medicine Icon)

T1 sequence (Q07343 305-736 limits assumed): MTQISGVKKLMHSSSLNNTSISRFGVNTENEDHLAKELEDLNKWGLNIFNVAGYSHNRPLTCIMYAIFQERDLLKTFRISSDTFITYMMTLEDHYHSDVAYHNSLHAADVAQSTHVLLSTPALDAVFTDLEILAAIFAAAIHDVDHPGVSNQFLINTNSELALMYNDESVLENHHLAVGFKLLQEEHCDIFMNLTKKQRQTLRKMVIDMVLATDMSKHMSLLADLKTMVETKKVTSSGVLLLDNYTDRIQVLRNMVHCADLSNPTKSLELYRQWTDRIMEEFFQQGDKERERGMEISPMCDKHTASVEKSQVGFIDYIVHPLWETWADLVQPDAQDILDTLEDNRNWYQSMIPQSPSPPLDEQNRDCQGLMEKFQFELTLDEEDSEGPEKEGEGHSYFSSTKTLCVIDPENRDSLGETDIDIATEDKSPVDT

Question: For `CCOc1cc([C@@H](CS(C)(=O)=O)n2c(=O)[nH]c3cc(Br)cc(F)c32)ccc1OC` [WX001], which IC50 is on record?
Answer: 3.68 nM

Question: `CCOc1cc([C@@H](CS(C)(=O)=O)n2c(=O)[nH]c3cc(C(F)(F)F)ccc32)ccc1OC` [WX002] was tested. Which IC50 did it give?
Answer: 6.27 nM

Question: Which IC50 does the source give for `CCOc1cc([C@@H](CS(C)(=O)=O)n2c(=O)[nH]c3cc(Cl)ccc32)ccc1OC` [WX003] here?
Answer: 2.22 nM

Question: With `CCOc1cc([C@@H](CS(C)(=O)=O)n2c(=O)[nH]c3cc(F)ccc32)ccc1OC` [WX004] as the molecule, how does the IC50 read?
Answer: 11.5 nM

Question: Which IC50 does the source give for `CCOc1cc([C@@H](CS(C)(=O)=O)n2c(=O)[nH]c3cc(F)cc(F)c32)ccc1OC` [WX005] here?
Answer: 92.4 nM

Question: With `CCOc1cc([C@@H](CS(C)(=O)=O)n2c(=O)[nH]c3cc(C(F)(F)F)cc(F)c32)ccc1OC` [WX006] as the molecule, how does the IC50 read?
Answer: 25.7 nM

Question: How did the IC50 turn out when `CCOc1cc([C@@H](CS(C)(=O)=O)n2c(=O)[nH]c3c(Br)cccc32)ccc1OC` [WX007] was run?
Answer: 9.2 nM

Question: How did the IC50 turn out when `CCOc1cc([C@@H](CS(C)(=O)=O)n2c(=O)[nH]c3c(Cl)cccc32)ccc1OC` [WX008] was run?
Answer: 22.3 nM

Question: With `CCOc1cc([C@@H](CS(C)(=O)=O)n2c(=O)[nH]c3cc(Br)ccc32)ccc1OC` [WX009] as the molecule, how does the IC50 read?
Answer: 6.29 nM

Question: Which IC50 does the source give for `CCOc1cc([C@@H](CS(C)(=O)=O)n2c(=O)[nH]c3ccccc32)ccc1OC` [WX010] here?
Answer: 19.5 nM

Question: How did the IC50 turn out when `CCOc1cc([C@@H](CS(C)(=O)=O)n2c(=O)[nH]c3cc(-c4ccccc4F)ccc32)ccc1OC` [WX011] was run?
Answer: 0.526 nM

Question: For `CCOc1cc([C@@H](CS(C)(=O)=O)n2c(=O)[nH]c3cc(-c4cccc(F)c4)ccc32)ccc1OC` [WX012], which IC50 is on record?
Answer: 2.18 nM

Question: How did the IC50 turn out when `CCOc1cc([C@@H](CS(C)(=O)=O)n2c(=O)[nH]c3cc(-c4ccc(F)cc4)ccc32)ccc1OC` [WX013] was run?
Answer: 6.11 nM

Question: How did the IC50 turn out when `CCOc1cc([C@@H](CS(C)(=O)=O)n2c(=O)[nH]c3cc(-c4ccccc4C)ccc32)ccc1OC` [WX014] was run?
Answer: 0.606 nM

Question: Which IC50 does the source give for `CCOc1cc([C@@H](CS(C)(=O)=O)n2c(=O)[nH]c3cc(-c4ccccc4Cl)ccc32)ccc1OC` [WX015] here?
Answer: 0.676 nM

Question: For `CCOc1cc([C@@H](CS(C)(=O)=O)n2c(=O)[nH]c3cc(-c4ccccc4OC)ccc32)ccc1OC` [WX016], which IC50 is on record?
Answer: < 0.5 nM

Question: `CCOc1cc([C@@H](CS(C)(=O)=O)n2c(=O)[nH]c3cc(-c4ccccc4C(F)(F)F)ccc32)ccc1OC` [WX017] was tested. Which IC50 did it give?
Answer: < 0.5 nM

Question: For `CCOc1cc([C@@H](CS(C)(=O)=O)n2c(=O)[nH]c3cc(-c4ccccc4C(C)C)ccc32)ccc1OC` [WX018], which IC50 is on record?
Answer: < 0.5 nM

Question: Which IC50 does the source give for `CCOc1cc([C@@H](CS(C)(=O)=O)n2c(=O)[nH]c3cc(-c4ccccc4CC)ccc32)ccc1OC` [WX019] here?
Answer: < 0.5 nM

Question: How did the IC50 turn out when `CCOc1cc([C@@H](CS(C)(=O)=O)n2c(=O)n(C3CC3)c3cc(Cl)ccc32)ccc1OC` [WX020] was run?
Answer: 12.6 nM

Question: With `CCOc1cc([C@@H](CS(C)(=O)=O)n2c(=O)n(C3CC3)c3cc(F)ccc32)ccc1OC` [WX021] as the molecule, how does the IC50 read?
Answer: 64.4 nM

Question: How did the IC50 turn out when `CCOc1cc([C@@H](CS(C)(=O)=O)n2c(=O)n(C3CC3)c3cc(C(F)(F)F)ccc32)ccc1OC` [WX022] was run?
Answer: 39.5 nM

Question: For `CCOc1cc([C@@H](CS(C)(=O)=O)n2c(=O)n(C3CC3)c3cc(-c4ccccc4F)ccc32)ccc1OC` [WX023], which IC50 is on record?
Answer: 1.89 nM

Question: With `CCOc1cc([C@@H](CS(C)(=O)=O)n2c(=O)[nH]c3cc(-c4ccccc4OCC)ccc32)ccc1OC` [WX024] as the molecule, how does the IC50 read?
Answer: < 0.5 nM

Question: For `CCOc1cc([C@@H](CS(C)(=O)=O)n2c(=O)[nH]c3cc(-c4ncccc4F)ccc32)ccc1OC` [WX025], which IC50 is on record?
Answer: 1.42 nM

Question: How did the IC50 turn out when `CCOc1cc([C@@H](CS(C)(=O)=O)n2c(=O)[nH]c3cc(-c4nccnc4C)ccc32)ccc1OC` [WX026] was run?
Answer: 8.44 nM

Question: Which IC50 does the source give for `CCOc1cc([C@@H](CS(C)(=O)=O)n2c(=O)[nH]c3cc(-c4nnccc4C)ccc32)ccc1OC` [WX027] here?
Answer: 17.8 nM

Question: Which IC50 does the source give for `CCOc1cc([C@@H](CS(C)(=O)=O)n2c(=O)[nH]c3cc(-c4ccccc4C#N)ccc32)ccc1OC` [WX028] here?
Answer: < 0.5 nM

Question: How did the IC50 turn out when `CCOc1cc([C@@H](CS(C)(=O)=O)n2c(=O)[nH]c3cc(-c4nccnc4N(C)C)ccc32)ccc1OC` [WX029] was run?
Answer: < 0.5 nM

Question: For `CCOc1cc([C@@H](CS(C)(=O)=O)n2c(=O)[nH]c3cc(-c4nccnc4C4CC4)ccc32)ccc1OC` [WX030], which IC50 is on record?
Answer: 1.31 nM

Question: How did the IC50 turn out when `CCOC(=O)c1ccc2c(c1)[nH]c(=O)n2[C@H](CS(C)(=O)=O)c1ccc(OC)c(OCC)c1` [WX031] was run?
Answer: 3.3 nM

Question: Which IC50 does the source give for `CCOc1cc([C@@H](CS(C)(=O)=O)n2c(=O)[nH]c3cc(C(=O)OC(C)C)ccc32)ccc1OC` [WX032] here?
Answer: 2.05 nM

Question: For `CCOc1cc([C@@H](CS(C)(=O)=O)n2c(=O)[nH]c3cc(C(=O)OCC(F)(F)F)ccc32)ccc1OC` [WX033], which IC50 is on record?
Answer: 1.1 nM

Question: Which IC50 does the source give for `CCOc1cc([C@@H](CS(C)(=O)=O)n2c(=O)[nH]c3cc(C(=O)O)ccc32)ccc1OC` [WX034] here?
Answer: 22.4 nM

Question: `CCOc1cc([C@@H](CS(C)(=O)=O)n2c(=O)[nH]c3cc(C(=O)CC)ccc32)ccc1OC` [WX035] was tested. Which IC50 did it give?
Answer: 8.3 nM

Question: `CCOc1cc([C@@H](CS(C)(=O)=O)n2c(=O)n(CC(F)F)c3cc(Cl)ccc32)ccc1OC` [WX036] was tested. Which IC50 did it give?
Answer: 9.12 nM

Question: With `CCOc1cc([C@@H](CS(C)(=O)=O)n2c(=O)n(CC(F)(F)F)c3cc(Cl)ccc32)ccc1OC` [WX037] as the molecule, how does the IC50 read?
Answer: 10.8 nM

Question: How did the IC50 turn out when `CCOc1cc([C@@H](CS(C)(=O)=O)n2c(=O)n(C)c3cc(Cl)ccc32)ccc1OC` [WX038] was run?
Answer: 7.99 nM

Question: For `CCOc1cc([C@@H](CS(C)(=O)=O)n2c(=O)n(CC)c3cc(Cl)ccc32)ccc1OC` [WX039], which IC50 is on record?
Answer: 9.96 nM

Question: With `CCOc1cc([C@@H](CS(C)(=O)=O)n2c(=O)n(CC3CC3)c3cc(Cl)ccc32)ccc1OC` [WX040] as the molecule, how does the IC50 read?
Answer: 7.54 nM

Question: Which IC50 does the source give for `CCOc1cc([C@@H](CS(C)(=O)=O)n2c(=O)n(CC3CCC3)c3cc(Cl)ccc32)ccc1OC` [WX041] here?
Answer: 11.9 nM

Question: How did the IC50 turn out when `CCOc1cc([C@@H](CS(C)(=O)=O)n2c(=O)n(CCOC)c3cc(Cl)ccc32)ccc1OC` [WX042] was run?
Answer: 6.83 nM

Question: With `CCOc1cc([C@@H](CS(C)(=O)=O)n2c(=O)n(CCO)c3cc(Cl)ccc32)ccc1OC` [WX043] as the molecule, how does the IC50 read?
Answer: 4.5 nM

Question: For `CCOc1cc([C@@H](CS(C)(=O)=O)n2c(=O)n(C(C)C)c3cc(Cl)ccc32)ccc1OC` [WX044], which IC50 is on record?
Answer: 5.12 nM

Question: Which IC50 does the source give for `CCOc1cc([C@@H](CS(C)(=O)=O)n2c(=O)n(CC#N)c3cc(Cl)ccc32)ccc1OC` [WX045] here?
Answer: 3.56 nM

Question: Which IC50 does the source give for `CCOc1cc([C@@H](CS(C)(=O)=O)n2c(=O)n(CC(F)F)c3cc(F)ccc32)ccc1OC` [WX046] here?
Answer: 10.1 nM

Question: For `CCOc1cc([C@@H](CS(C)(=O)=O)n2c(=O)n(CC(F)(F)F)c3cc(F)ccc32)ccc1OC` [WX047], which IC50 is on record?
Answer: 44.9 nM

Question: For `CCOc1cc([C@@H](CS(C)(=O)=O)n2c(=O)n(C)c3cc(F)ccc32)ccc1OC` [WX048], which IC50 is on record?
Answer: 57.8 nM

Question: How did the IC50 turn out when `CCOc1cc([C@@H](CS(C)(=O)=O)n2c(=O)n(CC#N)c3cc(F)ccc32)ccc1OC` [WX049] was run?
Answer: 11.4 nM

Question: `CCOc1cc([C@@H](CS(C)(=O)=O)n2c(=O)n(CCO)c3cc(F)ccc32)ccc1OC` [WX050] was tested. Which IC50 did it give?
Answer: 30.6 nM

Question: For `CCOc1cc([C@@H](CS(C)(=O)=O)n2c(=O)n(CC(F)F)c3cc(C(F)(F)F)ccc32)ccc1OC` [WX051], which IC50 is on record?
Answer: 26.9 nM

Question: Which IC50 does the source give for `CCOc1cc([C@@H](CS(C)(=O)=O)n2c(=O)n(CC(F)(F)F)c3cc(C(F)(F)F)ccc32)ccc1OC` [WX052] here?
Answer: 13.7 nM

Question: Which IC50 does the source give for `CCOc1cc([C@@H](CS(C)(=O)=O)n2c(=O)n(C)c3cc(C(F)(F)F)ccc32)ccc1OC` [WX053] here?
Answer: 26.4 nM

Question: How did the IC50 turn out when `CCOc1cc([C@@H](CS(C)(=O)=O)n2c(=O)n(CC)c3cc(C(F)(F)F)ccc32)ccc1OC` [WX054] was run?
Answer: 13.2 nM

Question: How did the IC50 turn out when `CCOc1cc([C@@H](CS(C)(=O)=O)n2c(=O)n(CC#N)c3cc(C(F)(F)F)ccc32)ccc1OC` [WX055] was run?
Answer: 21.2 nM
